Consider 31 molecules from patent US20250179061A1 (SIRONAX LTD., priority 2022, published 2025).

Like-named read-outs stand apart in the source and are kept apart here. Bounds are passed on as bounds.

In the experiment the test system is HT-29 cells. Description: HT-29 necroptosis cell viability assay (TNF-α/SMAC mimetic/zVAD-FMK, CellTiter-Glo). Conditions: Homo sapiens. The class given is cell-based. The gist of the method:
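Necroptosis was triggered by TNF-α (10 ng/ml), SMAC mimetic (6 μM) and zVAD-FMK (10 μM) in serum-free medium during 20 h compound exposure (10 concentrations, threefold steps) of HT-29 cells. IC50 from duplicate dose-responses uses CellTiter-Glo ATP luminescence as viability read-out.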

Setting [1] is: HT-29, HT-29 cells, necroptosis induced by TNF-α/SMAC mimetic/zVAD-FMK, CellTiter-Glo, read-out: Activity (IC50 class).

By IC50 is commonly meant the concentration at which inhibition is half-maximal. As for `Cc1nc(C(N)=O)sc1Oc1ncc(-n2ncn(Cc3c(F)cccc3F)c2=O)cc1F` [Example 643, 5-((5-(4-(2,6-difluorobenzyl)-5-oxo-4,5-dihydro-1H-1,2,4-triazol-1-yl)-3-fluoropyridin-2-yl)oxy)-4-methylthiazole-2-carboxamide], the IC50 under setting [1] is less than 100 nM.

`Cc1ncsc1Oc1ncc(-n2ncn(Cc3c(F)cccc3F)c2=O)cc1F` [Example 644, 4-(2,6-difluorobenzyl)-2-(5-fluoro-6-((4-methylthiazol-5-yl)oxy)pyridin-3-y1)-2,4-dihydro-3H-1,2,4-triazol-3-one]: the IC50 under setting [1] was less than 100 nM. For the molecule `Cc1nc(Br)sc1Oc1ncc(-n2ncn(Cc3c(F)cccc3F)c2=O)cc1F` [Example 645, 2-(6-((2-bromo-4-methylthiazol-5-y1)oxy)-5-fluoropyridin-3-yl)-4-(2,6-difluorobenzyl)-2,4-dihydro-3H-1,2,4-triazol-3-one], the IC50 under setting [1] was less than 100 nM. As to `COC(=O)c1nc(C)c(Oc2ncc(-n3ncn(Cc4c(F)cccc4F)c3=O)cc2F)s1` [Example 646, methyl 5-((5-(4-(2,6-difluorobenzyl)-5-oxo-4,5-dihydro-1H-1,2,4-triazol-1-yl)-3-fluoropyridin-2-yl)oxy)-4-methylthiazole-2-carboxylate], under setting [1], the IC50 was less than 100 nM. Same read-out and setting: in the case of `Cc1nc(C(N)=O)sc1Oc1ncc(-n2ncn(Cc3c(F)cccc3F)c2=O)cc1Cl` [Example 647, 5-((3-chloro-5-(4-(2,6-difluorobenzy1)-5-oxo-4,5-dihydro-1H-1,2,4-triazol-1-yl)pyridin-2-yl)oxy)-4-methylthiazole-2-carboxamide] it was less than 100 nM; in that of `COC(=O)c1nc(C)c(Oc2ncc(-n3ncn(Cc4c(F)cccc4F)c3=O)cc2Cl)s1` [Example 649, methyl 5-((3-chloro-5-(4-(2,6-difluorobenzyl)-5-oxo-4,5-dihydro-1H-1,2,4-triazol-1-yl)pyridin-2-yl)oxy)-4-methylthiazole-2-carboxylate], less than 100 nM. On to `Cc1c(CC#N)noc1Oc1ccc(-n2ncn(Cc3c(F)cccc3F)c2=O)cc1F` [Example 650, 2-(5-(4-(4-(2,6-difluorobenzyl)-5-oxo-4,5-dihydro-1H-1,2,4-triazol-1-yl)-2-fluorophenoxy)-4-methylisoxazol-3-yl)acetonitrile], for which the IC50 under setting [1] was less than 100 nM. Still for that read-out and setting: in the case of `Cc1nc(C(N)C(F)(F)F)sc1Oc1ccc(-n2ncn(Cc3c(F)cccc3F)c2=O)cc1F` (stereo not shown) [Example 651, 2-(4-((2-(1-amino-2,2,2-trifluoroethyl)-4-methylthiazol-5-yl)oxy)-3-fluorophenyl)-4-(2,6-difluorobenzyl)-2,4-dihydro-3H-1,2,4-triazol-3-one] it was 100 to 1000 nM. As for `Cc1sc(CCO)nc1Oc1ccc(-n2ncn(Cc3c(F)cccc3F)c2=O)cc1F` [Example 652, 4-[(2,6-difluorophenyl)methyl]-2-[3-fluoro-4-[2-(2-hydroxyethyl)-5-methyl-thiazol-4-yl]oxy-phenyl]-1,2,4-triazol-3-one], under “HT-29, read-out: Activity (IC50 class)”, the IC50 fell in the range of 100 to 1000 nM. For `Cc1nc(C#N)sc1Oc1ncc(-n2ncn(Cc3c(F)cccc3F)c2=O)cc1Cl` [Example 653, 5-[[3-chloro-5-[4-[(2,6-difluorophenyl)methyl]-5-oxo-1,2,4-triazol-1-yl]-2-pyridyl]oxy]-4-methyl-thiazole-2-carbonitrile], under setting [1], the IC50 lay within 100 to 1000 nM. Same read-out and setting: next, `CCOC(=O)c1nc(COc2ccc(-n3ncn(Cc4c(F)cccc4F)c3=O)cc2F)cs1` [Example 654, Ethyl 4-((4-(4-(2,6-difluorobenzyl)-5-oxo-4,5-dihydro-1H-1,2,4-triazol-1-yl)-2-fluorophenoxy)methyl)thiazole-2-carboxylate]: 1000 to 10000 nM; `N#CCc1nc(COc2ccc(-n3ncn(Cc4c(F)cccc4F)c3=O)cc2F)cs1` [Example 655, 2-[4-[[4-[4-[(2,6-difluorophenyl)methyl]-5-oxo-1,2,4-triazol-1-yl]-2-fluoro-phenoxy]methyl]thiazol-2-yl]acetonitrile]: 100 to 1000 nM; `O=C1NC2(CO1)CN(c1cc(Oc3ccc(-n4ncn(Cc5c(F)cccc5F)c4=O)cc3F)c(F)cn1)C2` [Example 656, 2-[4-[4-[4-[(2,6-difluorophenyl)methyl]-5-oxo-1,2,4-triazol-1-yl]-2-fluoro-phenoxy]-5-fluoro-2-pyridyl]-7-oxa-2,5-diazaspiro[3.4]octan-6-one]: less than 100 nM.

As for `Cc1ncn(Cc2ccc(-n3ncn(Cc4c(F)cccc4F)c3=O)cc2)c1C#N` [Example 657, 3-[[4-[4-[(2,6-difluorophenyl)methyl]-5-oxo-1,2,4-triazol-1-yl]phenyl]methyl]-5-methyl-imidazole-4-carbonitrile], the IC50 under setting [1] was less than 100 nM. On the same count and under the same terms, in the case of `O=c1n(Cc2c(F)cccc2F)cnn1-c1ccc(Oc2cncs2)cc1` [Example 658] it was less than 100 nM; in that of `Nc1nc(COc2ccc(-n3ncn(Cc4c(F)cccc4F)c3=O)cc2F)cs1` [Example 659, 2-(4-((2-aminothiazol-4-yl)methoxy)-3-fluorophenyl)-4-(2,6-difluorobenzyl)-2,4-dihydro-3H-1,2,4-triazol-3-one], 100 to 1000 nM.

`CC(C)(C)CNC(=O)c1cc(Oc2ccc(-n3ncn(Cc4c(F)cccc4F)c3=O)cc2)ccn1` [Example 660, 4-(4-(4-(2,6-difluorobenzyl)-5-oxo-4,5-dihydro-1H-1,2,4-triazol-1-yl)phenoxy)-N-neopentylpicolinamide]: the IC50 under setting [1] lay in the range of 100 to 1000 nM. Same read-out and setting: next, `COc1cc(Oc2ccc(-n3ncn(Cc4c(F)cccc4F)c3=O)cc2)ccn1` [Example 661, 4-(2,6-difluorobenzyl)-2-(4-((2-methoxypyridin-4-yl)oxy)phenyl)-2,4-dihydro-3H-1,2,4-triazol-3-one]: 100 to 1000 nM. The same measure, in the same setting: next, `O=c1n(Cc2c(F)cccc2F)cnn1-c1ccc(Oc2ccnc(Cl)c2)cc1` [Example 662, 2-(4-((2-chloropyridin-4-yl)oxy)phenyl)-4-(2,6-difluorobenzyl)-2,4-dihydro-3H-1,2,4-triazol-3-one]: 100 to 1000 nM; `Cc1nc(Br)nn1Cc1ccc(-n2ncn(Cc3c(F)cccc3F)c2=O)cc1` [Example 663, 2-(4-((3-bromo-5-methyl-1H-1,2,4-triazol-1-yl)methyl)phenyl)-4-(2,6-difluorobenzyl)-2,4-dihydro-3H-1,2,4-triazol-3-one]: 100 to 1000 nM; `Cc1nc(N2CC(C)(C#N)C2)cn1Cc1ccc(-n2ncn(Cc3c(F)cccc3F)c2=O)cc1` [Example 664, 1-(1-(4-(4-(2,6-difluorobenzyl)-5-oxo-4,5-dihydro-1H-1,2,4-triazol-1-yl)benzyl)-2-methyl-1H-imidazol-4-yl)-3-methylazetidine-3-carbonitrile]: 1000 to 10000 nM. `Cc1nc(N2CC(C)(C#N)C2)nn1Cc1ccc(-n2ncn(Cc3c(F)cccc3F)c2=O)cc1` [Example 665, 1-(1-(4-(4-(2,6-difluorobenzyl)-5-oxo-4,5-dihydro-1H-1,2,4-triazol-1-yl)benzyl)-5-methyl-1H-1,2,4-triazol-3-yl)-3-methylazetidine-3-carbonitrile]: under setting [1], the IC50 fell in the range of 1000 to 10000 nM. Take `Cc1nc(Br)cn1Cc1ccc(-n2ncn(Cc3c(F)cccc3F)c2=O)cc1` [Example 666, 2-(4-((4-bromo-2-methyl-1H-imidazol-1-yl)methyl)phenyl)-4-(2,6-difluorobenzyl)-2,4-dihydro-3H-1,2,4-triazol-3-one]: the IC50 under setting [1] was less than 100 nM.

Consider `Cc1nc(C(N)=O)sc1Oc1ccc(-n2nc3n(c2=O)C(c2ccc(F)cc2)CC3)cc1F` (stereo not shown) [Example 667, 5-(2-fluoro-4-(5-(4-fluorophenyl)-3-oxo-6,7-dihydro-3H-pyrrolo[1,2-c][1,2,4]triazol-2(5H)-yl)phenoxy)-4-methylthiazole-2-carboxamide], for which the IC50 under setting [1] is less than 100 nM. The same measure, in the same setting: next, `COc1cncc(Oc2ccc(-n3ncn(Cc4c(F)cccc4F)c3=O)cc2)c1` [Example 671, 4-(2,6-difluorobenzyl)-2-(4-((5-methoxypyridin-3-yl)oxy)phenyl)-2,4-dihydro-3H-1,2,4-triazol-3-one]: less than 100 nM; `O=c1n(Cc2c(F)cccc2F)cnn1-c1ccc(Oc2ccnc(N3CC4(CCOCC4)C3)c2F)cc1` [Example 672, 4-(2,6-difluorobenzyl)-2-(4-((3-fluoro-2-(7-oxa-2-azaspiro[3.5]nonan-2-yl)pyridin-4-yl)oxy)phenyl)-2,4-dihydro-3H-1,2,4-triazol-3-one]: less than 100 nM. On the same count and under the same terms, in the case of `O=c1n(Cc2c(F)cccc2F)cnn1-c1ccc(Oc2c(Cl)ccnc2N2CC3(CCOCC3)C2)cc1` [Example 673, 2-(4-((4-chloro-2-(7-oxa-2-azaspiro[3.5]nonan-2-yl)pyridin-3-yl)oxy)phenyl)-4-(2,6-difluorobenzyl)-2,4-dihydro-3H-1,2,4-triazol-3-one] it was greater than 10000 nM; in that of `CCOC1CN(c2ncc(F)c(Oc3ccc(-n4ncn(Cc5c(F)cccc5F)c4=O)cc3)c2F)C1` [Example 674, 4-(2,6-difluorobenzyl)-2-(4-((2-(3-ethoxyazetidin-1-yl)-3,5-difluoropyridin-4-yl)oxy)phenyl)-2,4-dihydro-3H-1,2,4-triazol-3-one], less than 100 nM. Still for that read-out and setting: in the case of `CN(C)c1cc(C#N)ccc1Oc1ccc(-n2ncn(Cc3c(F)cccc3F)c2=O)cc1F` [Example 676, 4-(4-(4-(2,6-difluorobenzyl)-5-oxo-4,5-dihydro-1H-1,2,4-triazol-1-yl)-2-fluorophenoxy)-3-(dimethylamino)benzonitrile] it was less than 100 nM; in that of `CN(C)c1ccccc1Oc1ccc(-n2nc(Cl)n(Cc3ccccc3)c2=O)cc1` [Example 677, 4-benzyl-5-chloro-2-(4-(2-(dimethylamino)phenoxy)phenyl)-2,4-dihydro-3H-1,2,4-triazol-3-one], 100 to 1000 nM. As to `Nc1ccccc1Oc1ccc(-n2nc(Cl)n(Cc3ccccc3)c2=O)cc1` [Example 679, 2-(4-(2-aminophenoxy)phenyl)-4-benzyl-5-chloro-2,4-dihydro-3H-1,2,4-tirazol-3-one], the IC50 under setting [1] is less than 100 nM.
